# From PubChem BioAssay (NCI)
#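 Cultured in 96-well plates, cells were exposed to test compound for 48 hours across five concentrations. GI50 marks 50% less growth. TGI: total growth inhibition.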
# Assays:
# Assay in all cases: inhibition of tumour cell growth, NCI panel, 48 h
# [1] = tested on: SNB-75 CNS
# [2] = tested on: KM12 colon
# [3] = tested on: SK-MEL-2 melanoma
# [4] = tested on: A549 NSCLC
# [5] = tested on: RXF 393 renal
# [6] = tested on: TK-10 renal
# [7] = tested on: HOP-92 NSCLC
# [8] = tested on: PC-3 prostate
# [9] = tested on: K-562 leukemia
# [10] = tested on: T-47D breast
Structure (SMILES),GI50 [1] [µM],TGI [1] [µM],GI50 [2] [µM],TGI [2] [µM],GI50 [3] [µM],TGI [3] [µM],GI50 [4] [µM],TGI [4] [µM],GI50 [5] [µM],TGI [5] [µM],GI50 [6] [µM],TGI [6] [µM],GI50 [7] [µM],TGI [7] [µM],GI50 [8] [µM],TGI [8] [µM],GI50 [9] [µM],TGI [9] [µM],GI50 [10] [µM],TGI [10] [µM]
CC(=O)[O][Hg][c]1c(C)c(C)cc(C)c1C,1.48,2.99,2.22,6.26,1.53,3.3,5.55,15,0.482,1.24,1.86,3.84,0.128,0.705,1.73,4.5,0.743,11,1.68,4.79
Cc1cc(Cl)nc(N(CCCNc2ccnc3cc(Cl)ccc23)Cc2ccco2)n1,2.13,11.2,2.79,11.5,2.82,9.19,3.28,13.9,1.41,4.55,2.7,11.1,0.779,4.19,1.87,6,1.4,5.86,1.73,6.43
c1cc2c(cn1)Nc1ccncc1S2,43.9,> 100,32.3,> 100,35.2,> 100,32.8,> 100,15.6,42.3,42.7,> 100,8.52,76.6,41.7,> 100,55.4,> 100,34.8,> 100
CC1=C(Nc2ccc(N3CCN(C)CC3)cc2)C(=O)c2cncnc2C1=O,14.7,30,10.1,30.4,16,42,3.96,17.6,5.71,19.4,28.5,58.1,2.12,4.37,3.05,11.9,2.78,> 100,1.78,4.26
COc1nnc2ccc(N3CCC(c4ccc(OCCN5CCN(C)C(=O)[C@H]5C)cc4)CC3)nn12,0.0144,73.7,0.322,> 100,0.678,> 100,0.436,> 100,3.85,> 100,0.0555,> 70.2,0.0541,> 65.3,0.315,> 100,0.0755,> 100,0.0618,> 69.2
O=[N+]([O-])c1cccc(C2CC(c3ccccc3)=Nc3ccccc3S2)c1 (stereo not drawn),9.53,> 100,6.32,19.3,21,43.6,30.6,> 100,17.2,36.6,22.1,42.2,14.3,45.6,10.1,28.7,3.76,> 100,16.6,52.6
O=C(CN1C(=O)S/C(=C\C(Cl)=C\c2ccccc2)C1=O)NC1C=CS(=O)(=O)C1 (stereo not drawn),0.387,12.6,1.78,4.11,2.11,5.22,3,> 100,0.849,2.18,2.08,6.61,1.67,5.75,2.15,7.33,0.4,> 100,0.917,8.19
C=C1C(=O)OC2/C=C(/C)C(OC(C)=O)C/C=C(\C)C(OC(=O)C3(C)OC3C)C(O)C12 (stereo not drawn),–,> 100,–,> 100,–,> 100,–,> 100,–,> 100,–,> 100,–,> 100,–,> 100,–,> 100,–,> 100
N#CC1c2ccccc2C=CN1C(=O)N(c1ccccc1)c1ccccc1 (stereo not drawn),6.3,21,6.38,19.3,3.97,13.6,19.7,51.8,1.73,3.2,1.89,3.58,2,4.36,9.82,25.3,3.06,> 100,1.87,4.45
CCc1nc(N)nc(N)c1-c1ccc(N2CCNCC2)cc1,–,> 100,–,> 100,–,> 100,–,> 100,–,> 100,–,> 100,–,> 100,–,> 100,–,> 87.2,–,> 100
CC[n+]1c(/C=C/C=C2\N(C)c3ccccc3C2(C)C)sc2ccccc21,3.7,7.5,4.46,8.7,5.23,11,4.77,10,4.33,10.3,5.06,13.2,3.54,10.8,4.29,11.3,4.34,9.43,4.65,11.8
CO[C@H]1C[C@@H]2CC[C@@H](C)[C@@](O)(O2)C(=O)C(=O)N2CCCC[C@H]2C(=O)O[C@H]([C@H](C)C[C@@H]2CC[C@@H](OCCO)[C@H](OC)C2)CC(=O)[C@H](C)C=C(C)[C@@H](O)[C@@H](OC)C(=O)[C@H](C)C[C@H](C)/C=C/C=C/C=C1C,< 0.01,14.1,1.18,21.2,–,21.4,< 0.01,22.3,< 0.01,–,< 0.01,19.1,0.0199,20,< 0.01,16.7,2.41,31.4,< 0.01,21.5
